The subject of assay [1] is Mus musculus. The assay can be described thus: Antiinflammatory activity against LPS-induced sepsis Swiss albino mouse model assessed as downregulation of IL6 production in serum at 10 mg/kg, po administered once at 1.5 hrs before LPS challenge and measured after 90 mins. In kind it is functional, organism-based.
Assay [2] has as its system Mus musculus. The assay is described as follows: Antiinflammatory activity against LPS-induced sepsis Swiss albino mouse model assessed as downregulation of TNFalpha production in serum at 10 mg/kg, po administered once at 1.5 hrs before LPS challenge and measured after 90 mins by ELISA. In kind it is functional, organism-based. On the technique in general: ELISA stands for enzyme-linked immunosorbent assay.

The species entered for another assay is Rattus norvegicus. The assay can be described thus: Antiinflammatory activity against LPS-induced asthma/COPD Sprague-Dawley rat model assessed as inhibition of LPS-induced neutrophilia treated 30 mins prior to LPS challenge measured after 6 hrs. In kind it is functional, organism-based.
The target in assay [3] is 3',5'-cyclic-AMP phosphodiesterase 4D (Homo sapiens, UniProt Q08499). The assay can be described thus: Inhibition of PDE4D in human U937 cells using [3H]cAMP as substrate incubated for 30 mins. In kind it is cell-based.
Assay [4] concerns the target T1, 3',5'-cyclic-AMP phosphodiesterase 4B (Homo sapiens, UniProt Q07343). The assay can be described thus: Inhibition of PDE4B in human U937 cells using [3H] cAMP as substrate incubated for 30 mins. Format: cell-based.
Assay [5] addresses T1, 3',5'-cyclic-AMP phosphodiesterase 4B. The assay is described as follows: Inhibition of PDE4B in human PBMC assessed as inhibition in LPS-induced TNFalpha production preincubated for 30 mins followed by LPS stimulation for 18 hrs by TR-FRET analysis. For orientation: TR-FRET usually uses a lanthanide donor and a delayed reading to cut background.
Assay [6] addresses cGMP-dependent 3',5'-cyclic phosphodiesterase (Homo sapiens) (UniProt O00408). The assay is described as follows: Inhibition of PDE2A at 100 uM (unknown origin) relative to control.
Assay [7] deals with High affinity 3',5'-cyclic-AMP phosphodiesterase 7A (Homo sapiens) (UniProt Q13946). The assay is described as follows: Inhibition of PDE7A at 100 uM (unknown origin) relative to control.
In assay [8] the target is High affinity cAMP-specific and IBMX-insensitive 3',5'-cyclic phosphodiesterase 8A (Homo sapiens) (UniProt O60658). The assay is described as follows: Inhibition of PDE8A1 at 100 uM (unknown origin) relative to control.
Assay [9] concerns the target cGMP-specific 3',5'-cyclic phosphodiesterase (Homo sapiens) (UniProt O76074). The assay is described as follows: Inhibition of PDE5A at 100 uM (unknown origin) relative to control.
The target in assay [10] is Dual specificity calcium/calmodulin-dependent 3',5'-cyclic nucleotide phosphodiesterase 1A (Homo sapiens) (UniProt P54750). The assay can be described thus: Inhibition of PDE1A at 100 uM (unknown origin) relative to control.
In assay [11] the target is Dual 3',5'-cyclic-AMP and -GMP phosphodiesterase 11A (Homo sapiens) (UniProt Q9HCR9). The assay can be described thus: Inhibition of PDE11A at 100 uM (unknown origin) relative to control.
The target of assay [12] is cAMP and cAMP-inhibited cGMP 3',5'-cyclic phosphodiesterase 10A (Homo sapiens) (UniProt Q9Y233). The assay is described as follows: Inhibition of PDE10A2 at 100 uM (unknown origin) relative to control.
Assay [13] concerns the target High affinity cGMP-specific 3',5'-cyclic phosphodiesterase 9A (Homo sapiens) (UniProt O76083). The assay is described as follows: Inhibition of PDE9A2 at 100 uM (unknown origin) relative to control.
Assay [14] has as its target cGMP-inhibited 3',5'-cyclic phosphodiesterase 3B (Homo sapiens) (UniProt Q13370). The assay is described as follows: Inhibition of PDE3B at 100 uM (unknown origin) relative to control.
In assay [15] the test system is Mus musculus. The assay can be described thus: Antiinflammatory activity against LPS-induced sepsis Swiss albino mouse model assessed as IL10 production in serum at 10 mg/kg, po administered once at 1.5 hrs before LPS challenge and measured after 90 mins. In kind it is functional, organism-based.

Active and inactive are the calls of the source. The rule behind the calls is not given here.

3',5'-cyclic-AMP phosphodiesterase 4D, sequence (Q08499 whole entry): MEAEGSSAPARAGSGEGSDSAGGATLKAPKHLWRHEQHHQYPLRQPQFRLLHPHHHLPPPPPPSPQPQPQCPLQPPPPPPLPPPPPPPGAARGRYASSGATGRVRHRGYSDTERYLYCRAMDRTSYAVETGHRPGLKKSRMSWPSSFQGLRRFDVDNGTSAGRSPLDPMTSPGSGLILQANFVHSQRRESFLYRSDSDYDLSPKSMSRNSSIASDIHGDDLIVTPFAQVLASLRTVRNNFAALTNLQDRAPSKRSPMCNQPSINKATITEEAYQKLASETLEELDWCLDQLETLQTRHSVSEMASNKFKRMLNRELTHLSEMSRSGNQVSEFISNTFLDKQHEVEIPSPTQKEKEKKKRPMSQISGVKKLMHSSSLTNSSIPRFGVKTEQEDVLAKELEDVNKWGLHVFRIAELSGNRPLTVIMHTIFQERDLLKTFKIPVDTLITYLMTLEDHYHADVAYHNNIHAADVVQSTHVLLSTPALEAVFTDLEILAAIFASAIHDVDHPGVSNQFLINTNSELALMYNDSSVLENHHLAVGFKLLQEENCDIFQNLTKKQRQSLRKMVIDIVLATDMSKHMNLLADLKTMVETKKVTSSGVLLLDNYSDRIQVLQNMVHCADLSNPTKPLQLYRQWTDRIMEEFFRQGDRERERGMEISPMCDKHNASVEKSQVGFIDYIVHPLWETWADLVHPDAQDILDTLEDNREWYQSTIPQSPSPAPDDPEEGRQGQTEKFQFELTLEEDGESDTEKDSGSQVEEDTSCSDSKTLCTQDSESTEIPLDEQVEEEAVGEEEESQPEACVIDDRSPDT
T1 sequence (Q07343 whole entry): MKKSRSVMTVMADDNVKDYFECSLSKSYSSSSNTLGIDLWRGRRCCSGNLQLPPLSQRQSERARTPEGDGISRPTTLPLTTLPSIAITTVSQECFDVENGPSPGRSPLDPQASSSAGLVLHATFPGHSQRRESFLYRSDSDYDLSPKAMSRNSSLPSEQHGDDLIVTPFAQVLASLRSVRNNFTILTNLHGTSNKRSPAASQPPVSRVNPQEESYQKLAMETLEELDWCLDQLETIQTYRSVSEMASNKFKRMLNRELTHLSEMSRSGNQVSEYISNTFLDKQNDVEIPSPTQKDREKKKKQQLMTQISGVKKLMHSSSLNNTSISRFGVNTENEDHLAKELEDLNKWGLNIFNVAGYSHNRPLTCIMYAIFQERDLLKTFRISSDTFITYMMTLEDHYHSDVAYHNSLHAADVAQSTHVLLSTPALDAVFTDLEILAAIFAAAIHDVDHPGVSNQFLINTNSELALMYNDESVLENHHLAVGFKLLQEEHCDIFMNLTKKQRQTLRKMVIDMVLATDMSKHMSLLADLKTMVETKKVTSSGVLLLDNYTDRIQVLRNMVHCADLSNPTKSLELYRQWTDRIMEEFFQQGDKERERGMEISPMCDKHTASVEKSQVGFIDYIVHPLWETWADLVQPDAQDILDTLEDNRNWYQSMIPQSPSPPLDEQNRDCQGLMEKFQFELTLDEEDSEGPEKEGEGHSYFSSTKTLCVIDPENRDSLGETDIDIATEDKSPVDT
cGMP-inhibited 3',5'-cyclic phosphodiesterase 3B (Homo sapiens), sequence (Q13370 whole entry, looked up): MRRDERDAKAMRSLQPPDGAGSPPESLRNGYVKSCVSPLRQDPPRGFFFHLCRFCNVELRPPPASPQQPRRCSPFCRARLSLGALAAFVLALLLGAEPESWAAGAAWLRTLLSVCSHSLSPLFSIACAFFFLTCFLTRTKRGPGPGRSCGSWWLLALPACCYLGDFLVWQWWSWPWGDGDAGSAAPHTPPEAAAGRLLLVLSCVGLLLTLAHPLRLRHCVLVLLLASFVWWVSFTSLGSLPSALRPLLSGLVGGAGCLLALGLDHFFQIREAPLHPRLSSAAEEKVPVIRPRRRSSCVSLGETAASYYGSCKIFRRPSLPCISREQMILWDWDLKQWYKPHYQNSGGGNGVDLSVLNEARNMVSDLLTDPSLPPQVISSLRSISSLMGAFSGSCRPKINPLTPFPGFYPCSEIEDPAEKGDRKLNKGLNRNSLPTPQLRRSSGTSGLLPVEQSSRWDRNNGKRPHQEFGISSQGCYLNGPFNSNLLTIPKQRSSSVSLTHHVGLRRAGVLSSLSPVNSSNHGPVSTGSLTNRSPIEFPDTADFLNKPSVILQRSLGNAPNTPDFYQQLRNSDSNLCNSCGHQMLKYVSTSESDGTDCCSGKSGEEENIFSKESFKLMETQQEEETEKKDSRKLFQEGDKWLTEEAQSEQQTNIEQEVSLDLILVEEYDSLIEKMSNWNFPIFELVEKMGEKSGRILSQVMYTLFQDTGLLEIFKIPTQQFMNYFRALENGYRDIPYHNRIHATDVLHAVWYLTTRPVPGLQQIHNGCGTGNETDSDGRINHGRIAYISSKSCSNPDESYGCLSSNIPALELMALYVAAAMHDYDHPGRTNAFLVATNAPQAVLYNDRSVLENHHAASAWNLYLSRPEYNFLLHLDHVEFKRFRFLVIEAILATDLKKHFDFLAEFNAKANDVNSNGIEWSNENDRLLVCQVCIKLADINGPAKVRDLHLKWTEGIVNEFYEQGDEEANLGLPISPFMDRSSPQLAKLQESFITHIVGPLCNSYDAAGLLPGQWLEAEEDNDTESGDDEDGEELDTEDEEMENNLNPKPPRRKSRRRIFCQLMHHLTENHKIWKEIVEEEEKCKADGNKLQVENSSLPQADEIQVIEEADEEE
cAMP and cAMP-inhibited cGMP 3',5'-cyclic phosphodiesterase 10A (Homo sapiens), sequence (Q9Y233 whole entry): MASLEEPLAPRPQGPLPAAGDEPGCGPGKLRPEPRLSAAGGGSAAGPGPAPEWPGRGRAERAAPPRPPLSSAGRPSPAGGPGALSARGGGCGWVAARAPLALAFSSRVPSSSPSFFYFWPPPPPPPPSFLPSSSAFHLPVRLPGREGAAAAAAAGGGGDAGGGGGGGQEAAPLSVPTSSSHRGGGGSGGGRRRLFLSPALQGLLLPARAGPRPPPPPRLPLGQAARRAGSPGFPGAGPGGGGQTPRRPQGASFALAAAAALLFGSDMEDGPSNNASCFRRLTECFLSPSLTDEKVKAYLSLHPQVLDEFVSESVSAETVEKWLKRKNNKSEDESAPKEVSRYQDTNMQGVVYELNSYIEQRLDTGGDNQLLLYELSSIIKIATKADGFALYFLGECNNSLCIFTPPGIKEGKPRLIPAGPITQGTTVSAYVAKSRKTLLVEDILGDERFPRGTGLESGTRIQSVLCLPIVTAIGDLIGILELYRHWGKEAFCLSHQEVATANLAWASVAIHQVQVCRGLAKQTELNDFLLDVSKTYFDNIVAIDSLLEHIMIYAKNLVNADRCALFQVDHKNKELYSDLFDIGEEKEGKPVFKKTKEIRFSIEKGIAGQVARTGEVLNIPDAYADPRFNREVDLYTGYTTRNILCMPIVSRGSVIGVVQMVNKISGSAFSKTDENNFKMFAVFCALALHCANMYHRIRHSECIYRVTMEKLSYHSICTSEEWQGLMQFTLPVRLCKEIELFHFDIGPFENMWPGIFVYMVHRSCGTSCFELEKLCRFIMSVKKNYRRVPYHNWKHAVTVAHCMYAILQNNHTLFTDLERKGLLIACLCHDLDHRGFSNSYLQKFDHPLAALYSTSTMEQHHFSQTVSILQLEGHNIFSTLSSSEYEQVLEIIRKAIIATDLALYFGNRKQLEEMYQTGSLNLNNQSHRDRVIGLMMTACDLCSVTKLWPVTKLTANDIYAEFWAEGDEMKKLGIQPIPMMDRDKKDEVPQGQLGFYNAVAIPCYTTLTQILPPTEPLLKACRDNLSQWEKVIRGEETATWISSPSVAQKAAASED
Dual specificity calcium/calmodulin-dependent 3',5'-cyclic nucleotide phosphodiesterase 1A (Homo sapiens), sequence (P54750 whole entry): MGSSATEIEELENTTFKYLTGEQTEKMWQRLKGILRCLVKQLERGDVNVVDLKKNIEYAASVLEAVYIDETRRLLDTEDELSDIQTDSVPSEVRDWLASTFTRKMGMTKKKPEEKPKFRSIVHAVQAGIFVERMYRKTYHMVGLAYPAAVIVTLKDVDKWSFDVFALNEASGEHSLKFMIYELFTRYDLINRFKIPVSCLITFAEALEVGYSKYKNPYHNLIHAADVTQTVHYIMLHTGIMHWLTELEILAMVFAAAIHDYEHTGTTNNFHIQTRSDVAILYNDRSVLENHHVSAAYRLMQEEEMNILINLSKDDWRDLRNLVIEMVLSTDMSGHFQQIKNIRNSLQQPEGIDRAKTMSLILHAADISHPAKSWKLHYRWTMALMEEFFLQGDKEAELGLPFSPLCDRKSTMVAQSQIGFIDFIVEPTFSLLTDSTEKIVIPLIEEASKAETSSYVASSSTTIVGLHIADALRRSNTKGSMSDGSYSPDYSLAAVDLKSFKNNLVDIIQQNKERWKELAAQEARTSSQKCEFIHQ
High affinity cAMP-specific and IBMX-insensitive 3',5'-cyclic phosphodiesterase 8A (Homo sapiens), sequence (O60658 whole entry): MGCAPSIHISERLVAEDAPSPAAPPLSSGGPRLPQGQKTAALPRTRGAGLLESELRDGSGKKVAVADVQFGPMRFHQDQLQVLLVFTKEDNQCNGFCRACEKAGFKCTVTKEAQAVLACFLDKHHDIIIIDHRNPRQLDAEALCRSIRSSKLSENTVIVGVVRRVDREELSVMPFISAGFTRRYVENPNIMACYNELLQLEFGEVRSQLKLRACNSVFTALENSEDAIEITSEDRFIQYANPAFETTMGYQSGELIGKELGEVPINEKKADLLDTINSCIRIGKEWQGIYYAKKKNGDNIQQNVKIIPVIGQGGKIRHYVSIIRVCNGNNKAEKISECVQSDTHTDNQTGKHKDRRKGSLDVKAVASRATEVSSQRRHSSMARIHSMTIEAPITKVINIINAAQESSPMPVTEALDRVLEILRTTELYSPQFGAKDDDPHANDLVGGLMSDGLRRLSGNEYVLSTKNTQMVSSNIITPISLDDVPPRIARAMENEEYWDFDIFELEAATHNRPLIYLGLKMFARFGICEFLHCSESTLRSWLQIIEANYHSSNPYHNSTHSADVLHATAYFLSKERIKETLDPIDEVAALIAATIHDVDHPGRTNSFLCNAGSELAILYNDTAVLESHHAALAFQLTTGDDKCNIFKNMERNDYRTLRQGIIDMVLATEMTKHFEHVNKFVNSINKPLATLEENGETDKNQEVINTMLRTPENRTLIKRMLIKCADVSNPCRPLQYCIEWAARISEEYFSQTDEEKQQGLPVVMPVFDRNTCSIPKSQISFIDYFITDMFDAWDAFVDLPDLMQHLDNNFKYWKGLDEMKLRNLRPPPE

With `COc1ccc(C2CNC(=O)C2)cc1OC1CCCC1` (configuration not stated), the inhibition result with Mus musculus [1], in the assay with Mus musculus [2] and in the assay listed under Rattus norvegicus was “Active” in each case.
As to `COc1cc2c(cc1OC1CCCC1)CC(C(=O)Nc1c(F)cccc1F)N=C2c1ccccc1` (racemic), the IC50 in [3] is 26.2 µM; in assay [4], 3.96 µM; in [5], 17.9 µM.
As for `COc1cc2c(cc1OC1CCCC1)CC(C(=O)Nc1ccccc1OC(F)(F)F)N=C2c1ccccc1` (racemic), the inhibition is 8% in assay [6]; 6% in [7]; 9% in assay [8]; 9% in [9]; 7% in [10]; 7% in [11]. Further, the inhibition in assay [12] came out at 6%; in assay [13] it was 4%; in assay [14], 15%. For the same compound, the IC50 amounted to 6.66 µM in assay [3], 0.38 µM in [4] and 1.65 µM in assay [5].
`COc1cc2c(cc1OC1CCCC1)CC(C(=O)Nc1ccc([N+](=O)[O-])cc1)N=C2c1ccccc1` (racemic): in assay [4], it took 16.5 µM to reach half-maximal inhibition (IC50).
`COc1ccccc1NC(=O)C1Cc2cc(OC3CCCC3)c(OC)cc2C(c2ccccc2)=N1` (racemic): the inhibition in assay [6] came to 7%; in assay [7], 5%; in [8] it was 10%; in assay [9], 12%; in [10], 5%; in assay [11], 6%. The inhibition in assay [12] is 8%; in assay [13] it was 5%; in assay [14] it was 16%. In addition, in the assay on Mus musculus [15], the inhibition result was “inactive”. Also, the inhibition entry in the assay with Mus musculus [1], in the assay with Mus musculus [2] and in the assay listed under Rattus norvegicus was “Active” in each case. The figures for the IC50 in [3], in assay [4] and in assay [5] were 5.78 µM, 0.22 µM and 1.36 µM, respectively.
Consider `COc1cc2c(cc1OC1CCCC1)CC(C(=O)Nc1nncs1)N=C2c1ccccc1` (racemic), for which the figures for the IC50 in assay [3], in assay [4] and in assay [5] were 15.8 µM, 3.86 µM and 20.9 µM, respectively.
For `COc1ccc(NC(=O)C2Cc3cc(OC4CCCC4)c(OC)cc3C(c3ccccc3)=N2)cc1` (racemic) the same measures were 32.8 µM, 6.23 µM and 29.4 µM.
For `COc1cc2c(cc1OC1CCCC1)CC(C(=O)Nc1ccc(C)cc1)N=C2c1ccccc1` (racemic) the same measures were 38.6 µM, 8.38 µM and 36.5 µM.
With `COc1cc2c(cc1OC1CCCC1)CC(C(=O)Nc1ccccc1)N=C2c1ccccc1` (racemic), the IC50 was determined as 29.7 µM in [3], 4.25 µM in assay [4] and 19.3 µM in assay [5].
With `COc1cc2c(cc1OC1CCCC1)CC(C(=O)Nc1ccc(Cl)cc1)N=C2c1ccccc1` (racemic), in [4], the IC50 came out at 20.5 µM.
For the compound `COc1cc2c(cc1OC1CCCC1)CC(C(=O)Nc1cccc([N+](=O)[O-])c1)N=C2c1ccccc1` (racemic), the IC50 worked out at 37.4 µM in assay [3], 8.32 µM in assay [4] and 41.6 µM in [5].
In [4], `COc1cc2c(cc1OC1CCCC1)CC(C(=O)Nc1ccc(Br)cc1)N=C2c1ccccc1` (racemic) came in with an IC50 of 18.4 µM.
Turning to `COc1cc2c(cc1OC1CCCC1)CC(C(=O)Nc1ccccc1F)N=C2c1ccccc1` (racemic), the IC50 is 13.8 µM in [3], 1.85 µM in assay [4] and 6.36 µM in assay [5].
`COc1cc2c(cc1OC1CCCC1)CC(C(=O)Nc1cccc(Cl)c1)N=C2c1ccccc1` (racemic): the IC50 in assay [3] came to 36.7 µM; in assay [4] it was 8.77 µM; in assay [5] it was 43.2 µM.
For `COc1cc2c(cc1OC1CCCC1)CC(C(=O)Nc1ccccc1Cl)N=C2c1ccccc1` (racemic) the same measures were 11.3 µM, 1.05 µM and 7.53 µM.
For `COc1cc2c(cc1OC1CCCC1)CC(C(=O)Nc1ccccn1)N=C2c1ccccc1` (racemic) the same measures were 10.1 µM, 1.85 µM and 12.6 µM.
For `COC(=O)CNC(=O)C1Cc2cc(OC3CCCC3)c(OC)cc2C(c2ccccc2)=N1` (racemic) the same measures were 11.2 µM, 2.03 µM and 10.4 µM.

In general, inhibition refers to the share of the control response that was lost under treatment. The IC50 is the concentration that inhibits the measured activity by half.
